Laboratory results as given in patent US6685932B1, “Coiled-coil dimer derived antagonists of 4-helix bundle cytokines, design and uses thereof” (Europaisches Laboratorium Molekularbiologie, priority 1997, dated 2004).
Like-named read-outs stand apart in the source and are kept apart here. Blank lines part the entries; values can stand above or below the substance they belong to. Positions of bridges follow the written chain, without caps; N, C: chain ends. Chains are numbered I, II in the order given.

Columns and labels:
[1] = target: T1, IL-4Rα (extracellular domain, IL4BP) (Homo sapiens, UniProt P24394, Q231C); experiment: biosensor-based binding experiments (BIA2000 system) on immobilised IL-4 binding protein
T1 sequence (P24394 26-232 Q231C): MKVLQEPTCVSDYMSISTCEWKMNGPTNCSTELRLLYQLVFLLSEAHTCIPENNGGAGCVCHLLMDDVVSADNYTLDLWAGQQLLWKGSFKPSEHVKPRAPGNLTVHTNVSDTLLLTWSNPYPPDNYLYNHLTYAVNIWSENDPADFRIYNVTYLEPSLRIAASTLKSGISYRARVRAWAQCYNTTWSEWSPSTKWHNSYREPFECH
Description: All the peptides were synthesized by solid phase methods, aminated on the C-terminus and acetylated on the N-terminus. The activity of the peptides was investigated by biosensor-based binding experiments using the BIA2000 system (Pharmacia Biosensor), at room temperature. […] An extensive study of the role of disulfide bridges in the stability of coiled-coil structures and proteins in general is available in the literature (86-88).

[2] = temperature-induced denaturation followed by Circular Dichroism; assay type: physicochemical; conditions: for stability / midpoint transition temperature (Tm), in words: CD at 222 nm
Description: Upon fitting the experimental data, the midpoint transition temperature (Tm) can be obtained.

- Kd ([1]; room temperature (25° C.), immobilised biotinylated IL4BP): 105597
Substance: RMKQLEDKVEELLSKNYRLENRVARLEKLVG [Model 1]

Substance: I: Ac-RMKQLEKKVERCLKRNYRLEWEVIRLKKLVG-NH2 / II: Ac-RMKQLEKKVERCLKRNYRLEWEVIRLKKLVG-NH2 (disulfide I:12-II:12) [Model 12CMAR-IL4]
- increase in the binding affinity to IL-4Rα ([1]; relative to MAR-IL4): 5 fold

Substance: Ac-RMKQLEKKVERLLKRNYRLEWEVIRLKKLVG-NH2 [MAR-IL-4]
- Kd [1]: 26 µM
- stability / midpoint transition temperature (Tm), in words [2]: cooperative temperature induced transition characteristic of a folded protein
- temperature at which the peptide starts losing its structure ([2]; low peptide concentrations used to measure binding): 25 °C

- binding affinity relative to parent peptide ([1]; relative to peptide bearing cysteine at position 12): binding affinity is not affected
- stability / midpoint transition temperature (Tm), in words [2]: significant drop in the stability
Substance: I: Ac-RMKQLEKKVERCLKRLYRNEWEVIRLKKLVG-NH2 / II: Ac-RMKQLEKKVERCLKRLYRNEWEVIRLKKLVG-NH2 (disulfide I:12-II:12) [Model 12CNMAR-IL4]
